Molecules are shown by their SMILES.

Assay [1] concerns the target T1, Angiotensin II receptor (AT-1) type-1 (Rattus norvegicus, UniProt P29089+P25095).
T1 sequence (P29089 whole entry): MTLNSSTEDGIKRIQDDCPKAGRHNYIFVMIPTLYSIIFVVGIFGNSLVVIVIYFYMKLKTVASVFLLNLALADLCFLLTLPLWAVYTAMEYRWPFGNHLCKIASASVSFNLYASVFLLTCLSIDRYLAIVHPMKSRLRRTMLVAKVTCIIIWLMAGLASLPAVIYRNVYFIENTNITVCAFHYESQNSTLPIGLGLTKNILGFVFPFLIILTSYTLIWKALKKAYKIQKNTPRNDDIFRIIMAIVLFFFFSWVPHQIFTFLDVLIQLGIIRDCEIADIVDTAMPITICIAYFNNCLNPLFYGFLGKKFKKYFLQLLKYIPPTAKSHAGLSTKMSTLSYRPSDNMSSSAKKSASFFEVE
T1 sequence (P25095 whole entry): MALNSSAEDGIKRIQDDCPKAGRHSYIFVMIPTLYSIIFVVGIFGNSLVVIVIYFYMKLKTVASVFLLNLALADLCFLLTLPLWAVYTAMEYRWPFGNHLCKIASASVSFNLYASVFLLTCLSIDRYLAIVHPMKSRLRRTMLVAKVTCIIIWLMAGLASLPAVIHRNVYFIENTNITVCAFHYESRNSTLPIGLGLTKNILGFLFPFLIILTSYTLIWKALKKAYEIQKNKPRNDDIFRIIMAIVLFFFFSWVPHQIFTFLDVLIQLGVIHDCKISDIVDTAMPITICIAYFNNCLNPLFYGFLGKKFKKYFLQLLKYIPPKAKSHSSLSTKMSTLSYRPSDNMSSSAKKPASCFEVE
Briefly: In vitro displacement of [125I]angiotensin II from rat liver (Angiotensin 1 receptor) membrane preparation.

Assay [2] has as its target T2, Angiotensin II receptor (Rattus norvegicus) (UniProt P29089+P25095+P35351). Briefly: In vivo inhibition of pressor response induced by Angiotensin II (AII) following intravenous administration to pithed rats. The assay is classed as functional, organism-based.
Assay [3] has as its target T2, Angiotensin II receptor (Rattus norvegicus). Briefly: In vivo inhibition of pressor response induced by Angiotensin II (AII) following oral administration to pithed rats. The class given is functional, organism-based.

T2 sequence (P35351 whole entry, looked up, one chain of several): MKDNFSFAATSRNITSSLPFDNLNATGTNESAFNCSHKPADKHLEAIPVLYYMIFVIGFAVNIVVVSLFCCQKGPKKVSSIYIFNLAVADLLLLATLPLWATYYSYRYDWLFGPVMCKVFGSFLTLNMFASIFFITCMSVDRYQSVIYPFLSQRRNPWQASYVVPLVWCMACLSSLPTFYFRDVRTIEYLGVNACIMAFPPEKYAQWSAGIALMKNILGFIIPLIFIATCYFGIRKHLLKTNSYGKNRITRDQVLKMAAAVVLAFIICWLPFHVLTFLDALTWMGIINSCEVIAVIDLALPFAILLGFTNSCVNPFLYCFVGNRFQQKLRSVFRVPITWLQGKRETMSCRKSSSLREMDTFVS

In turn, `CCCCc1nc(SC)c(C(=O)O)n1Cc1ccc(-c2ccccc2S(=O)(=O)NC(=O)NCC2CCCCC2)cc1` returned an IC50 in assay [1] of 0.1 nM. Further, in assay [2], the ID50 is 0.35 mg/kg.

On to `CCCc1nc(SC)c(C(=O)O)n1Cc1ccc(-c2ccccc2S(=O)(=O)NC(=O)Nc2ccccc2)cc1`, for which the IC50 in assay [1] stood at 2.3 nM. In assay [2], the ID50 worked out at 0.52 mg/kg.

For `CCCCNC(=O)NS(=O)(=O)c1ccccc1-c1ccc(Cn2c(CCCC)nc(SC)c2C(=O)O)cc1`, the results for the ID50 in assay [3] and in assay [2] were 0.2 mg/kg and 0.09 mg/kg, respectively. This compound showed an IC50 in assay [1] of 0.2 nM.

Regarding `CCCCc1nc(SC)c(C(=O)O)n1Cc1ccc(-c2ccccc2S(=O)(=O)NC(=O)NC)cc1`, the ID50 was determined as 4.9 mg/kg in assay [3] and 0.27 mg/kg in assay [2]. Further, the IC50 in assay [1] was found to be 1.9 nM.

With `CCCc1nc(SC(F)F)c(C(=O)O)n1Cc1ccc(-c2ccccc2S(=O)(=O)NC(=O)CC2CCCCC2)cc1`, the values for the ID50 in assay [3] and in assay [2] were 1.1 mg/kg and 0.22 mg/kg, respectively. In addition, the 50% inhibitory concentration (IC50) in assay [1] was 0.07 nM.

In assay [1], `CCCc1nc(SC)c(C(=O)O)n1Cc1ccc(-c2ccccc2S(=O)(=O)NC(=O)Nc2ccc(C)cc2)cc1` yielded an IC50 of 1 nM. The ID50 in assay [2] stood at 0.87 mg/kg.

The compound `CCCc1nc(SC(F)F)c(C(=O)O)n1Cc1ccc(-c2ccccc2S(=O)(=O)NC(=O)CCc2ccccc2)cc1` showed a half-inhibitory concentration (IC50) in assay [1] of 0.1 nM. Further, in assay [2], the ID50 was 0.64 mg/kg.

With `CCCc1nc(SC)c(C(=O)O)n1Cc1ccc(-c2ccccc2S(=O)(=O)NC(=O)NCc2cccs2)cc1`, the ID50 in assay [3] is 1 mg/kg. The compound further yielded an IC50 in assay [1] of 0.1 nM.

As to `CCCc1nc(SC(F)F)c(C(=O)O)n1Cc1ccc(-c2ccccc2S(=O)(=O)NC(=O)Cc2ccccc2)cc1`, the ID50 was found to be 2 mg/kg in assay [3] and 0.26 mg/kg in assay [2]. The same compound returned an IC50 in assay [1] of 0.2 nM.

Take `CCCc1nc(SC)c(C(=O)O)n1Cc1ccc(-c2ccccc2S(=O)(=O)NC(=O)NCC2CCCCC2)cc1`: the ID50 in assay [3] amounted to 1.5 mg/kg; in assay [2], 0.3 mg/kg. The IC50 in assay [1] came to 0.1 nM.

In assay [3], `CCCc1nc(SC)c(C(=O)O)n1Cc1ccc(-c2ccccc2S(=O)(=O)NC(=O)NCC2CCCC2)cc1` had an ID50 of 1 mg/kg. The same compound displayed a half-maximal inhibitory concentration (IC50) in assay [1] of 0.1 nM.

For the compound `CCCc1nc(SC(F)F)c(C(=O)O)n1Cc1ccc(-c2ccccc2S(=O)(=O)NC(=O)Cc2cccs2)cc1`, the results for the ID50 in assay [3] and in assay [2] were 3 mg/kg and 0.13 mg/kg, respectively. The compound further displayed an IC50 in assay [1] of 0.07 nM.

As for `CCCc1nc(SC(F)F)c(C(=O)O)n1Cc1ccc(-c2ccccc2S(=O)(=O)NC(=O)CCc2cccs2)cc1`, the values for the ID50 in assay [3] and in assay [2] were 3.1 mg/kg and 0.33 mg/kg, respectively. The IC50 in assay [1] is given as 0.03 nM.

As to `CCCCc1nc(SC)c(C(=O)O)n1Cc1ccc(-c2ccccc2S(=O)(=O)NC(=O)NCC)cc1`, the ID50 in assay [3] was determined as 1.1 mg/kg; in assay [2], 0.17 mg/kg. Also, the IC50 in assay [1] worked out at 0.2 nM.

As for `CCCc1nc(SC)c(C(=O)O)n1Cc1ccc(-c2ccccc2S(=O)(=O)NC(=O)NCc2ccccc2)cc1`, the ID50 in assay [3] was found to be 1.4 mg/kg; in assay [2], 0.22 mg/kg. In addition, the IC50 in assay [1] is listed as 0.2 nM.

In turn, `CCCc1nc(SC)c(C(=O)O)n1Cc1ccc(-c2ccccc2S(=O)(=O)NC(=O)NC2CCCCC2)cc1` displayed an IC50 in assay [1] of 0.5 nM. That is a sub-nanomolar value.

With `CCCCc1nc(SC)c(C(=O)O)n1Cc1ccc(-c2ccccc2S(=O)(=O)NC(=O)NC(c2ccccc2)c2ccccc2)cc1`, in assay [1], the IC50 was 0.4 nM. This IC50 and that of the compound before are within 1.5-fold of each other.

`CCCCc1nc(SC(F)F)c(C(=O)O)n1Cc1ccc(-c2ccccc2S(=O)(=O)NC(=O)Cc2ccccc2)cc1`: the figures for the ID50 in assay [3] and in assay [2] were 2.2 mg/kg and 0.36 mg/kg, respectively. Besides, in assay [1], the IC50 is listed as 0.15 nM.

Regarding `CCCc1nc(SC(F)F)c(C(=O)O)n1Cc1ccc(-c2ccccc2S(=O)(=O)NC(=O)C(C)c2ccccc2)cc1` (configuration not stated), the IC50 in assay [1] was 0.3 nM.

As to `CCc1nc(SC)c(C(=O)O)n1Cc1ccc(-c2ccccc2S(=O)(=O)NC(=O)NCC2CCCCC2)cc1`, the ID50 in assay [3] was more than 10 mg/kg; in assay [2], 1.84 mg/kg. The same compound gave an IC50 in assay [1] of 1.3 nM.

For the compound `CCCCc1nc(SC)c(C(=O)O)n1Cc1ccc(-c2ccccc2S(=O)(=O)NC(=O)NCCC)cc1`, the ID50 in assay [3] is 0.7 mg/kg; in assay [2], 0.11 mg/kg. Besides, the 50% inhibitory concentration (IC50) in assay [1] worked out at 0.5 nM.

In the case of `CCCc1nc(SC(F)F)c(C(=O)O)n1Cc1ccc(-c2ccccc2S(=O)(=O)NC(=O)Cc2ccc(F)cc2)cc1`, in assay [1], the IC50 came to 0.1 nM. The compound further displayed an ID50 in assay [2] of 0.43 mg/kg.

The compound `CCCc1nc(SC(F)F)c(C(=O)O)n1Cc1ccc(-c2ccccc2S(=O)(=O)NC(=O)Cc2ccccc2Cl)cc1` displayed an IC50 in assay [1] of 0.3 nM. For the same compound, the ID50 in assay [2] is 0.8 mg/kg.

On to `CCCCc1nc(SC(F)F)c(C(=O)O)n1Cc1ccc(-c2ccccc2S(=O)(=O)NC(=O)CCC)cc1`, for which the ID50 worked out at 0.8 mg/kg in assay [3] and 0.09 mg/kg in assay [2]. Also, the IC50 in assay [1] is recorded as 0.5 nM.

As for `CCc1nc(SC)c(C(=O)O)n1Cc1ccc(-c2ccccc2S(=O)(=O)NC(=O)NCc2ccccc2)cc1`, the IC50 in assay [1] is listed as 0.1 nM. For the same compound, in assay [2], the ID50 came to 1.37 mg/kg.

In assay [1], `CCCCc1nc(SC)c(C(=O)O)n1Cc1ccc(-c2ccccc2S(=O)(=O)NC(=O)N(c2ccccc2)c2ccccc2)cc1` displayed an IC50 of 1.2 nM. In assay [2], the ID50 came to 5.8 mg/kg.

Turning to `CCCc1nc(SC(F)F)c(C(=O)O)n1Cc1ccc(-c2ccccc2S(=O)(=O)NC(=O)Cc2ccc3c(c2)OCO3)cc1`, the values for the ID50 in assay [3] and in assay [2] were 10 mg/kg and 0.35 mg/kg, respectively. The compound further displayed an IC50 in assay [1] of 0.3 nM.

Take `CCCc1nc(SC(F)F)c(C(=O)O)n1Cc1ccc(-c2ccccc2S(=O)(=O)NC(=O)Cc2ccc3ccccc3c2)cc1`: the IC50 in assay [1] is recorded as 0.1 nM.

In the case of `CCCc1nc(SC(F)F)c(C(=O)O)n1Cc1ccc(-c2ccccc2S(=O)(=O)NC(=O)CCCc2ccccc2)cc1`, the IC50 in assay [1] came out at 0.7 nM. Besides, the ID50 in assay [2] was 0.52 mg/kg.

Regarding `CCCCc1nc(SC(F)F)c(C(=O)O)n1Cc1ccc(-c2ccccc2S(=O)(=O)NC(=O)CC2CCCCC2)cc1`, the ID50 turned out to be 1.7 mg/kg in assay [3] and 0.6 mg/kg in assay [2]. For the same compound, the concentration for half-maximal inhibition (IC50) in assay [1] is listed as 0.2 nM.

`CCCCc1nc(SC)c(C(=O)O)n1Cc1ccc(-c2ccccc2S(=O)(=O)NC(=O)NCc2ccccc2)cc1`: the IC50 in assay [1] was 0.1 nM.

The values above are taken from ChEMBL document CHEMBL1128069, “Balanced AT1 and AT2 angiotensin II antagonists. I. New orally active 5-carboxyl imidazolyl biphenyl sulfonylureas” (Bioorg Med Chem Lett, 1995).
